Assay [1] in a line: Cytotoxicity against human Jurkat cells assessed as cell survival at 10 uM measured after 48 hrs by MTT assay relative to control. It is filed as functional. The conditions noted are these: read-out: Survival. A general note: Formazan colour is commonly taken as a measure of viable cells.
Assay [2] can be described thus: Cytotoxicity against human HCT116 cells assessed as cell survival at 10 uM measured after 48 hrs by MTT assay relative to control. It is filed as functional. The conditions noted are these: HCT-116, 48 h, read-out: Survival.
A short description of assay [3]: Cytotoxicity against human MDA-MB-231 cells assessed as cell survival at 10 uM measured after 48 hrs by MTT assay relative to control. It is filed as functional. The following applies: MDA-MB-231, 48 h, read-out: Survival.
The test system of assay [4] is Rattus norvegicus. In words: Antiinflammatory activity in rat assessed as inhibition of carrageenan-induced hind paw edema at 50 mg/Kg, po administered 30 mins before carrageenan challenge measured after 1 hr relative to control. It is filed as functional.
The subject of assay [5] is Rattus norvegicus. Briefly: Antiinflammatory activity in rat assessed as inhibition of carrageenan-induced hind paw oedema at 50 mg/Kg, po administered 30 mins before carrageenan challenge measured after 2 hrs relative to control. It is filed as functional. (Carrageenan injected into the paw causes an acute inflammation.)
The test system of assay [6] is Rattus norvegicus. Briefly: Antiinflammatory activity in rat assessed as inhibition of carrageenan-induced hind paw oedema at 50 mg/Kg, po administered 30 mins before carrageenan challenge measured after 3 hrs relative to control. The format is functional.
In assay [7] the test system is Rattus norvegicus. Briefly: Antiinflammatory activity in rat assessed as inhibition of carrageenan-induced hind paw oedema at 50 mg/Kg, po administered 30 mins before carrageenan challenge measured after 4 hrs relative to control. The format is functional.
The nature of assay [8]: Cytotoxicity against human HCT116 cells assessed as effect on cell viability measured after 48 hrs by MTT assay. It is filed as functional, cell-based. The following applies: HCT-116, 48 h.
Assay [9] in a line: Cytotoxicity against human MDA-MB-231 cells assessed as effect on cell viability measured after 48 hrs by MTT assay. It is filed as functional, cell-based. The following applies: MDA-MB-231, 48 h.
Assay [10] can be described thus: Cytotoxicity against human Jurkat cells assessed as effect on cell viability measured after 48 hrs by MTT assay. The format is functional, cell-based.
Assay [11] concerns Jurkat. Briefly: Induction of apoptosis in human Jurkat cells assessed as activation of caspase 3/7 at 1 uM measured after 48 hrs by fluorescence assay relative to control. It is filed as functional.

We go through 17 molecules from ChEMBL document CHEMBL3872221, “Solvent-free synthesis of bacillamide analogues as novel cytotoxic and anti-inflammatory agents” (Eur J Med Chem, 2016).

As a reminder, the inhibition in vivo is the relative decrease from the control value, in per cent. Consider `O=C(NCCc1c[nH]c2ccccc12)c1csc(-c2ccc(Cl)cc2)n1`, for which the figures for the viability at 10 µM in assay [1], in [2] and in [3] were 84.8%, 99.2% and 94.8%, respectively. For the same molecule, the inhibition in vivo at 50 mg/kg in assay [4] stood at 68%; in assay [5], 63%; in assay [6], 62%; in assay [7], 56%.

In the case of `Cc1ccc(-c2nc(C(=O)NCCc3c[nH]c4ccccc34)cs2)cc1`, the viability at 10 µM in assay [1] came out at 88.3%; in [2] it was 108%; in assay [3], 87.3%. Besides, the inhibition in vivo at 50 mg/kg in assay [4] was 81%; in assay [5] it was 77%; in assay [6], 57%; in assay [7] it was 70%.

A word on the IC50: it is the concentration at which inhibition is half-maximal. In the case of `Nc1nc(C(=O)NCCc2c[nH]c3ccccc23)cs1`, the viability at 10 µM in assay [1] was 42.3%; in assay [2], 20.3%; in assay [3] it was 24.8%. In addition, the IC50 in assay [8] was determined as 5400 nM; in assay [9] it was 3000 nM; in assay [10], 3000 nM. Also, in assay [11], the “fold change (FC)” value is given as 4 - 5. For the same molecule, the inhibition in vivo at 50 mg/kg in assay [4] amounted to 86%; in assay [5] it was 74%; in [6] it was 54%; in [7], 82%.

On to `Cc1ccc(Nc2nc(C(=O)NCCc3c[nH]c4ccccc34)cs2)cc1`, for which the inhibition in vivo at 50 mg/kg in assay [4] was determined as 52%; in [5], 57%; in [6], 46%; in assay [7] it was 38%.

On to `O=C(NCCc1c[nH]c2ccccc12)c1csc(Nc2ccc(F)cc2)n1`, for which the inhibition in vivo at 50 mg/kg worked out at 83% in [4], 60% in assay [5], 59% in assay [6] and 42% in [7].

`O=C(NCCc1c[nH]c2ccccc12)c1csc(Nc2ccccc2)n1`: the figures for the viability at 10 µM in assay [1], in assay [2] and in assay [3] were 40.1%, 10.3% and 20.1%, respectively. In addition, the IC50 in [8] turned out to be 100 nM; in assay [9], 600 nM; in [10], 500 nM. Besides, the “fold change (FC)” value in assay [11] was 4 - 5. Further, the inhibition in vivo at 50 mg/kg in assay [4] turned out to be 77%; in assay [5], 73%; in assay [6] it was 65%; in [7] it was 78%.

On to `O=C(NCCc1c[nH]c2ccccc12)c1csc(-c2cccs2)n1`, for which the results for the viability at 10 µM in assay [1], in [2] and in assay [3] were 87.7%, 93.9% and 85.4%, respectively. Besides, the inhibition in vivo at 50 mg/kg in assay [4] was 82%; in assay [5] it was 76%; in assay [6] it was 58%; in assay [7], 62%.

On to `O=C(NCCc1c[nH]c2ccccc12)c1csc(-c2ccco2)n1`, for which the viability at 10 µM in assay [1] came to 87.2%; in assay [2] it was 96.9%; in assay [3], 84.4%. Besides, the inhibition in vivo at 50 mg/kg in assay [4] stood at 75%; in assay [5], 69%; in assay [6], 49%; in assay [7], 46%.

As for `O=C(NCCc1c[nH]c2ccccc12)c1csc(Cc2ccccc2)n1`, the viability at 10 µM in assay [1] was determined as 87.3%; in assay [2] it was 101%; in [3] it was 89%. Moreover, the inhibition in vivo at 50 mg/kg in assay [4] was determined as 76%; in assay [5] it was 57%; in assay [6], 45%; in [7], 42%.

Take `O=C(NCCc1c[nH]c2ccccc12)c1csc(-c2ccccc2)n1`: the results for the viability at 10 µM in assay [1], in assay [2] and in [3] were 87.3%, 97.6% and 88.3%, respectively. The inhibition in vivo at 50 mg/kg in assay [4] came to 55%; in assay [5], 62%; in assay [6], 25%; in assay [7], 57%.

On to `O=C(NCCc1c[nH]c2ccccc12)c1csc(Nc2ccc([N+](=O)[O-])cc2)n1`, for which the results for the viability at 10 µM in [1], in assay [2] and in [3] were 92.5%, 72.1% and 92.3%, respectively. For the same molecule, the inhibition in vivo at 50 mg/kg in [4] came out at 66%; in assay [5], 59%; in [6], 57%; in assay [7], 50%.

Regarding `O=C(NCCc1c[nH]c2ccccc12)c1csc(Nc2ccc(Cl)cc2)n1`, the inhibition in vivo at 50 mg/kg worked out at 49% in assay [4], 59% in assay [5], 50% in assay [6] and 41% in assay [7].

For the molecule `Cc1nc(C(=O)NCCc2c[nH]c3ccccc23)cs1`, the viability at 10 µM amounted to 88.1% in assay [1], 97% in assay [2] and 90.4% in assay [3]. Also, the inhibition in vivo at 50 mg/kg came to 63% in assay [4], 60% in assay [5], 44% in assay [6] and 50% in assay [7].

For `O=C(NCCc1c[nH]c2ccccc12)c1csc(Nc2ccc(Br)cc2)n1`, the viability at 10 µM in [1] turned out to be 85.5%; in assay [2], 55.3%; in [3], 41.5%. Also, the inhibition in vivo at 50 mg/kg in assay [4] was 23%; in assay [5], 54%; in assay [6] it was 49%; in [7], 46%.

For the molecule `CC(=O)c1nc(C(=O)NCCc2c[nH]c3ccccc23)cs1` [BACILLAMIDE A], the viability at 10 µM stood at 85.1% in assay [1], 81.1% in assay [2] and 105% in assay [3]. Moreover, the inhibition in vivo at 50 mg/kg was 58% in [4], 56% in [5], 46% in assay [6] and 42% in assay [7].

As for `COc1cccc2c1C(=O)c1c(O)c3c(c(O)c1C2=O)C[C@@](O)(C(=O)CO)C[C@@H]3O[C@H]1C[C@H](N)[C@H](O)[C@H](C)O1` [DOXORUBICIN], the viability at 10 µM in assay [1] worked out at 18.7%; in assay [2] it was 23.1%; in assay [3], 22.1%. In addition, the IC50 in assay [8] worked out at 330 nM; in [9], 450 nM.

`COc1ccc2c(c1)c(CC(=O)O)c(C)n2C(=O)c1ccc(Cl)cc1` [INDOMETHACIN]: the inhibition in vivo at 50 mg/kg was determined as 94% in [4], 84% in assay [5], 81% in assay [6] and 86% in assay [7].
